The test system of data set [1] is Streptococcus pneumoniae. As to the kind of experiment: Antibacterial activity against Streptococcus pneumoniae ATCC BAA1663. It is filed as functional, organism-based.
In data set [2] the test system is Streptococcus pneumoniae. As to the kind of experiment: Antibacterial activity against Streptococcus pneumoniae ATCC 49617. It counts as functional, organism-based.
In data set [3] the test system is Streptococcus pneumoniae. As to the kind of experiment: Antibacterial activity against Streptococcus pneumoniae ATCC 700904. It counts as functional, organism-based.
Data set [4] can be described thus: Oral bioavailability in rat at 10 mg/kg. It counts as ADME, organism-based. As to conditions: in vivo; call rule not given here.
Data set [5] in a line: AUC in rat at 2 mg/kg, iv. It is filed as ADME, organism-based. The note with it: in vivo.
Data set [6] is described as follows: AUC in rat at 10 mg/kg, po. It is filed as ADME, organism-based. As to conditions: in vivo.
Data set [7] in a line: Half life in rat at 10 mg/kg, po. It counts as ADME, organism-based. The note with it: in vivo.
Data set [8] can be described thus: Clearance in rat at 2 mg/kg, iv. It counts as ADME, organism-based. The note with it: in vivo.
A short description of data set [9]: Volume of distribution at steady state in rat at 2 mg/kg, iv. It counts as ADME, organism-based. The note with it: in vivo, read-out: Vdss.
Data set [10] is described as follows: Half life in rat at 2 mg/kg, iv. It counts as ADME, organism-based. The note with it: in vivo.
The nature of data set [11]: Cmax in rat at 10 mg/kg, po. As to conditions: in vivo. Also noted: dose 10 mg/kg, route oral. It is filed as ADME, organism-based.
Data set [12] is described as follows: Tmax in rat at 10 mg/kg, po. It counts as ADME, organism-based. The note with it: in vivo.
Data set [13] is described as follows: Protein binding in human plasma. It is filed as ADME, cell-free. As to conditions: read-out: PPB (converted).
The nature of data set [14]: Protein binding in rat plasma. It is filed as ADME, cell-free. The note with it: read-out: PPB (converted).
The nature of data set [15]: Solubility of compound at 1 mg/ml incubated for 24 hrs by LC/MS analysis. It counts as physicochemical.
The mark [16] stands for this setting: Streptococcus pneumoniae, ATCC 700904, read-out: IC50.

Converted amounts (≈) assume the structure as drawn.

For the compound `O=C(Nc1nccs1)c1c(O)c2cccc3c2n(c1=O)CCC3`, the half-maximal inhibitory concentration (IC50) in the data set with Streptococcus pneumoniae [1], with Streptococcus pneumoniae [2] and in the data set with Streptococcus pneumoniae [3] (setting [16]) was over 20 µM throughout.

As to `CCn1c(=O)c(C(=O)Nc2nc3ccccc3[nH]2)c(O)c2ccccc21`, the IC50 in the data set on Streptococcus pneumoniae [1] is 5.4 µM; with Streptococcus pneumoniae [2], 6.4 µM; in the data set with Streptococcus pneumoniae [3] (setting [16]), 3.8 µM.

The compound `CCCCn1c(=O)c(C(=O)Nc2nc3ccccc3[nH]2)c(O)c2ccccc21` had a bioavailability in data set [4] of 35%. Further, the values for the AUC in [5] and in data set [6] were 6990 ng·h/mL and 12400 ng·h/mL, respectively. For the same compound, the IC50 in the data set on Streptococcus pneumoniae [1] stood at 1.8 µM; with Streptococcus pneumoniae [2] it was 0.92 µM; in the data set with Streptococcus pneumoniae [3] (setting [16]), 0.8 µM. The values for the half-life in [7] and in data set [10] were 4 h and 18.8 h, respectively. For the same compound, the clearance in [8] is 3 mL/min/kg. Besides, in [9], the Vd was determined as 4.76 L/kg. Also, the Cmax in data set [11] amounted to 1200 ng/mL. Moreover, the Tmax in data set [12] amounted to 6 h.

In turn, `O=C(Nc1nc2ccccc2[nH]1)c1c(O)c2cccc3c2n(c1=O)CC3` displayed a bioavailability in data set [4] of 17%. The AUC in data set [5] worked out at 25700 ng·h/mL; in data set [6], 21400 ng·h/mL. In addition, the half-inhibitory concentration (IC50) in the data set with Streptococcus pneumoniae [1] was 2.1 µM; in the data set with Streptococcus pneumoniae [2] it was 2 µM; in the data set on Streptococcus pneumoniae [3] (setting [16]), 3.3 µM. Besides, the half-life in data set [7] is 7.2 h; in [10] it was 7.7 h. Moreover, the clearance in data set [8] was 1.17 mL/min/kg. The Vd in [9] turned out to be 0.84 L/kg. This compound also gave a Cmax in data set [11] of 2700 ng/mL. In data set [12], the time to peak (Tmax) is 2.7 h.

Consider `C=CCn1c(=O)c(C(=O)Nc2nccs2)c(O)c2ccccc21`, for which the IC50 was 4.5 µM in the data set with Streptococcus pneumoniae [1], 4.1 µM with Streptococcus pneumoniae [2] and 4.2 µM with Streptococcus pneumoniae [3] (setting [16]).

For the compound `CCn1c(=O)c(C(=O)Nc2nccs2)c(O)c2ccccc21`, the IC50 in the data set with Streptococcus pneumoniae [1] is 6.6 µM; in the data set on Streptococcus pneumoniae [2], over 20 µM; in the data set on Streptococcus pneumoniae [3] (setting [16]) it was 6.2 µM.

As for `O=C(Nc1nc2ccccc2[nH]1)c1c(O)c2cccc3c2n(c1=O)CCC3`, the IC50 with Streptococcus pneumoniae [1] stood at 5.2 µM; with Streptococcus pneumoniae [2] it was 6.5 µM; with Streptococcus pneumoniae [3] (setting [16]) it was 6.4 µM.

On to `O=C(Nc1nc2ccc(Cl)cc2s1)c1c(O)c2cccc3c2n(c1=O)CC3`, for which the figures for the fraction unbound in [13] and in data set [14] were 0.006 and 0.016, respectively. The IC50 with Streptococcus pneumoniae [1] was 1.03 µM; in the data set on Streptococcus pneumoniae [2], 0.27 µM; in the data set on Streptococcus pneumoniae [3] (setting [16]), 0.62 µM. In data set [15], the solubility at 24 h was 0.195 µg/mL (≈ 0.49 µM).

As to `CCCCn1c(=O)c(C(=O)Nc2nccs2)c(O)c2ccccc21`, the IC50 turned out to be 0.75 µM in the data set with Streptococcus pneumoniae [1], 0.57 µM with Streptococcus pneumoniae [2] and 0.77 µM in the data set on Streptococcus pneumoniae [3] (setting [16]).

Turning to `C=CCn1c(=O)c(C(=O)Nc2nc3ccccc3[nH]2)c(O)c2ccccc21`, the IC50 was over 20 µM in the data set with Streptococcus pneumoniae [1], 4.9 µM in the data set with Streptococcus pneumoniae [2] and over 20 µM in the data set with Streptococcus pneumoniae [3] (setting [16]).

On to `Cn1c(=O)c(C(=O)Nc2nc3ccccc3[nH]2)c(O)c2ccccc21`, for which the IC50 in the data set on Streptococcus pneumoniae [1], in the data set on Streptococcus pneumoniae [2] and in the data set on Streptococcus pneumoniae [3] (setting [16]) was over 20 µM throughout.

In the case of `Cc1nnc(NC(=O)c2c(O)c3cccc4c3n(c2=O)CC4)s1`, the IC50 in the data set with Streptococcus pneumoniae [1] stood at 2.7 µM; in the data set with Streptococcus pneumoniae [2], 2.2 µM; in the data set on Streptococcus pneumoniae [3] (setting [16]), 1.7 µM.

Take `CCCCn1c(=O)c(C(=O)Nc2nc3ccc(Cl)cc3s2)c(O)c2ccccc21`: the results for the IC50 with Streptococcus pneumoniae [1], with Streptococcus pneumoniae [2] and in the data set with Streptococcus pneumoniae [3] (setting [16]) were 0.66 µM, 1 µM and 0.38 µM, respectively.

With `O=C(Nc1nc2ccc(Cl)cc2s1)c1c(O)c2ccccc2[nH]c1=O`, the IC50 is over 20 µM with Streptococcus pneumoniae [1], 13.1 µM in the data set with Streptococcus pneumoniae [2] and over 20 µM in the data set with Streptococcus pneumoniae [3] (setting [16]).

For the compound `O=C(Nc1nc2ccc(Cl)cc2s1)c1c(O)c2cccc3c2n(c1=O)CCC3`, the IC50 in the data set on Streptococcus pneumoniae [1], in the data set on Streptococcus pneumoniae [2] and in the data set with Streptococcus pneumoniae [3] (setting [16]) was over 20 µM each time.

In the case of `O=C(Nc1nc2ccccc2s1)c1c(O)c2cccc3c2n(c1=O)CC3`, the IC50 with Streptococcus pneumoniae [1] stood at 8.8 µM; with Streptococcus pneumoniae [2] it was 3.6 µM; in the data set with Streptococcus pneumoniae [3] (setting [16]), 7.9 µM.

As to `O=C(Nc1nccs1)c1c(O)c2cccc3c2n(c1=O)CC3`, the IC50 with Streptococcus pneumoniae [1] was 16 µM; with Streptococcus pneumoniae [2], 17.6 µM; with Streptococcus pneumoniae [3] (setting [16]), over 20 µM.

On to `Cn1c(=O)c(C(=O)Nc2nccs2)c(O)c2ccccc21`, for which the IC50 with Streptococcus pneumoniae [1], in the data set with Streptococcus pneumoniae [2] and in the data set with Streptococcus pneumoniae [3] (setting [16]) was over 20 µM in each case.

Consider `C=CCn1c(=O)c(C(=O)Nc2nc3ccc(Cl)cc3s2)c(O)c2ccccc21`, for which the IC50 is 3.1 µM in the data set with Streptococcus pneumoniae [1], over 20 µM with Streptococcus pneumoniae [2] and 3.1 µM in the data set with Streptococcus pneumoniae [3] (setting [16]).

Regarding `CCn1c(=O)c(C(=O)Nc2nc3ccc(Cl)cc3s2)c(O)c2ccccc21`, the IC50 in the data set with Streptococcus pneumoniae [1] is over 20 µM; in the data set with Streptococcus pneumoniae [2], 5.9 µM; in the data set on Streptococcus pneumoniae [3] (setting [16]), over 20 µM.

In the case of `CC[C@H]1OC(=O)[C@H](C)[C@@H](O[C@H]2C[C@@](C)(OC)[C@@H](O)[C@H](C)O2)[C@H](C)[C@@H](O[C@@H]2O[C@H](C)C[C@H](N(C)C)[C@H]2O)[C@](C)(O)C[C@@H](C)C(=O)[C@H](C)[C@@H](O)[C@]1(C)O` [ERYTHROMYCIN], the results for the IC50 with Streptococcus pneumoniae [1], with Streptococcus pneumoniae [2] and in the data set with Streptococcus pneumoniae [3] were 0.037 to 0.08 µM, 0.051 to 0.1 µM and “Not Active”, respectively.

As for `CN[C@H](CC(C)C)C(=O)N[C@H]1C(=O)N[C@@H](CC(N)=O)C(=O)N[C@H]2C(=O)N[C@H]3C(=O)N[C@H](C(=O)N[C@H](C(=O)O)c4cc(O)cc(O)c4-c4cc3ccc4O)[C@H](O)c3ccc(c(Cl)c3)Oc3cc2cc(c3O[C@@H]2O[C@H](CO)[C@@H](O)[C@H](O)[C@H]2O[C@H]2C[C@](C)(N)[C@H](O)[C@H](C)O2)Oc2ccc(cc2Cl)[C@H]1O` [VANCOMYCIN], the IC50 in the data set on Streptococcus pneumoniae [1] was in the range of 0.13 to 0.19 µM; with Streptococcus pneumoniae [2], 0.15 to 0.18 µM; in the data set with Streptococcus pneumoniae [3] (setting [16]) it was 0.12 to 0.19 µM.

(Values after ChEMBL document CHEMBL4627326, “Discovery of 4-hydroxy-2-oxo-1,2-dihydroquinolines as potential inhibitors of Streptococcus pneumoniae, including drug-resistant strains” (Bioorg Med Chem Lett, 2020).)
